From US20020193425A1, “Cancer chemopreventative compounds and compositions and methods of treating cancers” (priority 2001, published 2002)
Read-outs that look alike come from different tables or passages of the source.

How the values were obtained:
[1] = tested on: HL-60 (human promyelocytic) cells; experiment: HL-60 cell proliferation assay of quassinoids, [3H]thymidine incorporation; format: cell-based; conditions: for IC50: 4-day incubation, [3H]thymidine incorporation, read-out: inhibition of proliferation (IC50)
Protocol: (§1) Induction of differentiation was determined by the ability of treated cells to produce superoxide anions (nitroblue tetrazolium (NBT)-reduction), a functional marker of mature macrophages or granulocytes. Proliferation capacity is equivalent to cell growth and was measured by incorporation of [3H]thymidine into DNA over a period of 18 h, and cytotoxic activity was evaluated by the loss of membrane integrity as shown by trypan blue exclusion. […] Although members of the brusatol and glaucarubolone series were active, when comparing members of both series that varied only in the positioning of the epoxymethano bridge, great differences were noted, as shown with yadianzolide C (5) and glaucarubolone (24), and analogues 4 (brusatol series) and 32 (glaucarubolone series).
(§2) HL-60 (human promyelocytic) cells were tested using a 4-day incubation protocol. In brief, cells in log phase (approximately 10^6 cells/mL) were diluted to […] and preincubated overnight (18 h) in 24-well plates to allow cell-growth recovery. Then, samples dissolved in DMSO were added, keeping the final DMSO concentration at 0.1% (v/v). Control cultures were treated with the same concentration of DMSO. After 4 days of incubation, the cells were analyzed to determine the percentage of cells undergoing maturation as determined by NBT reduction. Concomitantly, the effect on viability and proliferation of HL-60 cells was determined. In each experiment, 1α, 25-dihydroxyvitamin D3 (EC50=0.01 μM) and brusatol (EC50=0.07 μM) were used as reference controls. EC50 and IC50 values were calculated using 5-7 test concentrations (in duplicate), and consistent results were obtained, indicating the data reported for the related quassinoids are reliable.
(3) Cell Proliferation Assay. […] Cells were then collected on glass fiber filters (90×120 mm; Wallac, Turku, Finland) using a TOMTEC Harvester 96®.

[2] = tested on: HL-60 (human promyelocytic) cells; experiment: HL-60 cell differentiation of quassinoids, NBT reduction; format: cell-based
Protocol: as §1, §2
(1) Nitroblue Tetrazolium (NBT) Reduction. Evaluation of NBT reduction was used to assess the ability of sample-treated HL-60 cells to produce superoxide when challenged with 12-O-tetradecanoylphorbol 13-acetate (TPA). A 1:1 v/v) mixture of a cell suspension (10^6 cells) and TPA/NBT solution (2 mg/mL NBT and 1 μg/mL TPA in phosphate buffered solution) was incubated for 1 h at 37° C. Positive cells reduce NBT yielding intracellular black-blue formazan deposits, which were quantified by microscopic examination of >200 cells. Results were expressed as a percentage of positive cells.

[3] = HL-60 cytotoxicity of quassinoids, trypan blue exclusion; format: cell-based, human; conditions: human, HL-60 cells; HL-60; 4-day incubation; trypan blue exclusion; read-out: cytotoxicity (IC50)
Protocol: as §1, §2
(§3) (2) Cytotoxicity. Since loss of membrane integrity is an early feature of necrotic cells and a late feature of apoptotic cells, trypan blue, a […] blue dye, was used to stain cells with compromised plasma membranes, while leaving intact cells unstained. Cells […] of trypan blue (0.2% w/v in PBS), incubated for at least 5 min at room temperature, and counted using a hematocytometer. Viability percentages were calculated with duplicate samples.

[4] = tested on: human promyelocytic leukemia (HL-60) cells; conditions: cited from earlier work
[5] = tested on: HL-60 (human promyelocytic) cells; experiment: HL-60 cytotoxicity of quassinoids, trypan blue exclusion; format: cell-based; conditions: HL-60; 4-day incubation; trypan blue exclusion
Protocol: as §1, §2, §3

[6] = tested on: DMBA-induced preneoplastic lesion formation in mouse mammary organ culture; experiment: Inhibition of DMBA-induced preneoplastic lesion formation in mouse mammary organ culture (MMOC); format: cell-based; conditions: for % inhibition of DMBA-induced preneoplastic lesion formation: quassinoid (2 μM), in comparison with a DMBA control
Protocol: The identification of potential inhibitors of DMBA-induced preneoplastic lesion formation in mammary organ culture has been described previously. Briefly, four-week old BALB/c female mice (Charles River) were pretreated for nine days with 1 μg estradiol and 1 mg progesterone. The thoracic pair of mammary glands was dissected on silk and incubated with growth-promoting hormones in the presence of test compounds (2 μM) for 10 days. DMBA ([…]) was included in the medium (containing […]) for 24 hours on the third day of culture to induce preneoplastic mammary lesions. Following 10 days of growth promoting phase, all hormones except insulin were withdrawn and the glands were allowed to regress to lobuloalveolar structures during a 14-day incubation period. Glands then were fixed in 10% buffered formalin and stained with alum carmine. Incidence of lesion formation (percentage of glands per group with mammary lesions) was recorded, and percent inhibition was calculated by comparison with the DMBA control group that was not treated with test sample. Active samples induce 60% inhibition, based on historical controls.

[7] = Homo sapiens, HL-60, 96 h, read-out: induction of differentiation (EC50, μM)
[8] = HL-60, 4-day incubation, NBT-reduction, read-out: induction of differentiation (EC50)

Row | Compound | IC50 [1] [nM] | EC50 [2, 8] [µM] | IC50 [5] [nM] | further results
1 | CC[C@@](C)(OC(C)=O)C(=O)O[C@H]1C(=O)O[C@@H]2C[C@H]3C(C)=CC(=O)[C@@H](O)[C@]3(C)[C@H]3[C@@H](O)[C@H](O)[C@@]4(C)OC[C@]32[C@@H]14 [compound 3, quassimarin] |  |  |  | IC50 ([1]; Homo sapiens): 60 ± 5 nM; selectivity index ([1]; ratio of cytotoxic IC50 over antiproliferative IC50): 2.2 ± 0.5; EC50 [2, 7]: 0.09 ± 0.001 µM; IC50 at 4 days [3]: 130 ± 8 nM
2 | COc1cc([C@H]2Oc3c(OC)cc4ccc(=O)oc4c3O[C@@H]2CO)ccc1O [cleomiscosin A] |  |  |  | activity in the HL-60 test system [4]: inactive
3 | CC[C@@H](C)C(=O)O[C@H]1C(=O)O[C@@H]2C[C@H]3C(C)=CC(=O)[C@@H](O)[C@]3(C)[C@H]3[C@@H](O)[C@H](O)[C@@]4(C)OC[C@]32[C@@H]14 [compound 4, simalikalactone D] |  |  |  | IC50 ([1]; Homo sapiens): > 200 nM; EC50 [2, 7]: > 0.2 µM; IC50 at 4 days [3]: 200 ± 40 nM
4 | samaderin B [compound 48] | 400 ± 50 | 1 ± 0.02 | > 2000 | % inhibition of DMBA-induced preneoplastic lesion formation [6]: 0%
5 | CC1=CC(=O)[C@@H](O)[C@]2(C)[C@H]3[C@@]4(O)OC[C@@]35[C@@H](C[C@@H]12)OC(=O)C[C@H]5[C@@H](C)[C@H]4O [compound 26, chaparrinone] | 1200 ± 200 | ~2.4 | 5000 ± 300 | % inhibition of DMBA-induced preneoplastic lesion formation [6]: 25%
6 | CC[C@](C)(O)C(=O)O[C@H]1C(=O)O[C@@H]2C[C@H]3C(C)=CC(=O)[C@@H](O)[C@]3(C)[C@H]3[C@@]4(O)OC[C@]32[C@@H]1[C@@H](C)[C@H]4O [compound 25, glaucarubinone] | 500 ± 90 | 1.8 ± 0.09 | 1000 ± 100 | 
7 | bruceoside B |  |  |  | activity in the HL-60 test system [4]: inactive
8 | CC1=CC(=O)[C@@H](O)[C@]2(C)[C@H]3[C@]4(O)OC[C@]35[C@H]([C@@H](C)[C@H]4O)[C@@H](O)C(=O)O[C@@H]5C[C@@H]12 [compound 24, glaucarubolone] | 400 ± 30 | ~1.3 | 1300 ± 200 | 
9 | C=C1/C(=C\C=C2/CCC[C@]3(C)[C@@H]([C@H](C)CCCC(C)(C)O)CC[C@@H]23)C[C@@H](O)C[C@@H]1O [1α, 25-dihydroxyvitamin D3, reference compound] |  | 0.01 |  | 
10 | yadanziolide C [compound 5] | 1500 ± 80 | 10 ± 1.5 | > 10000 | 
11 | C[C@@]1(CO)[C@H](O)CC[C@@]2(C)[C@H]1CC[C@H]1C[C@@H]3C[C@@]12CC[C@]3(O)CO [aphidicolin, reference compound] |  |  |  | maturation of HL-60 cells ([2]; data not shown): incapable of inducing maturation
12 | CC[C@@](O)(CC(=O)O[C@@H]1C(=O)O[C@@H]2C[C@@H]3C(C)=CC(=O)[C@H](O)[C@]3(C)[C@H]3[C@]4(O)OC[C@]32[C@@H]1[C@@H](C)[C@H]4O)C(C)C [compound 10, Peninsularinone] | 9 ± 1 | 0.019 ± 0.0004 | 13 ± 1 | activity in the MMOC model ([6]; at concentrations as high as 2 mM): inactive; % inhibition of DMBA-induced preneoplastic lesion formation [6]: 44%
